Tests used:
[1] = Induction of cell cycle arrest in mouse BaF3 cells harboring CCDC6-RET G810R mutant assessed as accumulation of cells at G0/G1 phase at 30 nM incubated for 24 hrs by propidium iodide staining based analysis (reference value: 52.63%); format: functional
[2] = Induction of cell cycle arrest in mouse BaF3 cells harboring CCDC6-RET assessed as accumulation of cells at G2/M phase at 100 nM incubated for 24 hrs by propidium iodide staining based analysis (reference value: 34.11%); format: functional
[3] = Induction of apoptosis in mouse BaF3 cells harboring CCDC6-RET assessed as late apoptotic cells at 10 nM incubated for 48 hrs by Annexin V-PE staining based flow cytometry analysis (Rvb =2.44%); format: functional
BaF3 [4] = experiment: Antitumor activity against mouse BaF3 cells implanted in SCID mouse assessed as tumor growth inhibition at 25 mg/kg, ip administered once daily for 10 days; format: functional; details: BaF3, 240 h, time 10 day, read-out: TGI
[5] = biological target: BDNF/NT-3 growth factors receptor (Homo sapiens, UniProt Q16620); experiment: Inhibition of TRKB (unknown origin) at 1 uM relative to control
Chain of BDNF/NT-3 growth factors receptor (Q16620 32-822 limits assumed): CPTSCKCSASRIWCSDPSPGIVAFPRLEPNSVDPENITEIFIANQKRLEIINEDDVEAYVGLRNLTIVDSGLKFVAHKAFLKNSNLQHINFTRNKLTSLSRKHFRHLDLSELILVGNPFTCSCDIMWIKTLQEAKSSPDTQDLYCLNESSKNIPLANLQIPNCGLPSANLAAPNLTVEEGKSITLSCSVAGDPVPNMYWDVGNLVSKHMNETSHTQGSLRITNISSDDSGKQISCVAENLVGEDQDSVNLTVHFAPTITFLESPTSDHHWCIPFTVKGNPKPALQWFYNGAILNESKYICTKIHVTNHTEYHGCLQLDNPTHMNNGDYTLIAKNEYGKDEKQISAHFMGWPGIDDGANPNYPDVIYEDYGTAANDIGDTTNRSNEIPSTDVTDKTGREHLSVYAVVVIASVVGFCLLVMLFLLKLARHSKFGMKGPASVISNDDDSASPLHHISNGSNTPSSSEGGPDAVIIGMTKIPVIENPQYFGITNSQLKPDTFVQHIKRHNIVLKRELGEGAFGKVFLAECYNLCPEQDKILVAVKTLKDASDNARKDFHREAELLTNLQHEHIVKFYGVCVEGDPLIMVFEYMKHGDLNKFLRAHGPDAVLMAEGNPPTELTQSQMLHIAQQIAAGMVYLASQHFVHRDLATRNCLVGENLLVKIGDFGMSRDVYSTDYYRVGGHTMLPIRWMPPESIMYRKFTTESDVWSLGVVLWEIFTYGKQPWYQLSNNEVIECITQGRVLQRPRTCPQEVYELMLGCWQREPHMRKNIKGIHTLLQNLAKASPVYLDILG

BaF3 [6] = experiment: Inhibition of SHC phosphorylation in mouse BaF3 cells harboring CCDC6-RET G810C mutant incubated for 12 hrs by Western blotting analysis; format: cell-based; details: dose <= 300.0 nM
[7] = Induction of apoptosis in mouse BaF3 cells harboring CCDC6-RET assessed as necrotic cells at 100 nM incubated for 48 hrs by Annexin V-PE staining based flow cytometry analysis (Rvb =0.19%); format: functional
[8] = Induction of apoptosis in mouse BaF3 cells harboring CCDC6-RET G810R mutant assessed as necrotic cells at 10 nM incubated for 48 hrs by Annexin V-PE staining based flow cytometry analysis (Rvb =0.30%); format: functional

Which results are given for `COc1cncc(-c2cn[nH]c2/C=C/c2ccc(NC(=O)Nc3cc(C(C)(C)C(F)(F)F)on3)c(Cl)c2)c1`?
Activity [1]: 53.02%; Activity [2]: 23.17%; Activity [3]: 2.8%; inhibition in vivo at 25 mg/kg (BaF3 [4]): 39.7%; inhibition [5]: 100%; inhibition (BaF3 [6]): Dose-dependent-effect; Activity [7]: 0.05%; Activity [8]: 0.17%
